As a reminder, the IC50 is the point on the concentration scale where inhibition reaches its midpoint.

Structures are written as SMILES.

Sequence of full-length human HPK1 (MAP4K1) (Q92918 whole entry): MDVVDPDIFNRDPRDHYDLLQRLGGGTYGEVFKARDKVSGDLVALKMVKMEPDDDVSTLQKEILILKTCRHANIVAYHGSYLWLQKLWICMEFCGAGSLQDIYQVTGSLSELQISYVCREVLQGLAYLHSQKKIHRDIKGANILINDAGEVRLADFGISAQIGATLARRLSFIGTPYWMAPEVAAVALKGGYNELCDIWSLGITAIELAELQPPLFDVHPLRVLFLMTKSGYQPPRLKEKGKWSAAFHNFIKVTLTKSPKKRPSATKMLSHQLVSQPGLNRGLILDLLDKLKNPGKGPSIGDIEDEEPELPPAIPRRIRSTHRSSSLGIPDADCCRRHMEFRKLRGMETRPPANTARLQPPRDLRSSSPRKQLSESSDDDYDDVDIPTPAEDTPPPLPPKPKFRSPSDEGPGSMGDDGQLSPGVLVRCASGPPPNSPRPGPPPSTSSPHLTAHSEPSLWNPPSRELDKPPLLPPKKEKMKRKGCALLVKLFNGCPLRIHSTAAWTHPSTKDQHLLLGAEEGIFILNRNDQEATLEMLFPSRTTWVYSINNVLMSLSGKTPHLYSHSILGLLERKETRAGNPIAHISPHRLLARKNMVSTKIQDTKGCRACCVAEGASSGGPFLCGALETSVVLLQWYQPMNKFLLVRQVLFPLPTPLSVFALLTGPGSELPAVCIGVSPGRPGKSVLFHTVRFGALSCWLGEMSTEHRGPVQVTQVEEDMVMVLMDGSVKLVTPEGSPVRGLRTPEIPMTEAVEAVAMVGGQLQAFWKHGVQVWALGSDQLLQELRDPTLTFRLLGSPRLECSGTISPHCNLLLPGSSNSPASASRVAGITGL

This experiment deals with full-length human HPK1 (MAP4K1) (Homo sapiens (Human), UniProt Q92918). Description: HPK1 Kinase Assay (Biochemical Assay), ADP-Glo. The conditions noted are these: GST-HPK1 3.2 nM, 10 μM ATP, MBP substrate, read-out: HPK1 enzymatic IC50. The source says:
HPK1 Kinase Assay (Biochemical Assay).
A recombinant fusion protein consisting of full-length human HPK1 (MAP4K1) with an N-terminal Glutatione S-transferase (GST) tag was produced in insect cells Sf21 using the baculovirus expression system. GST-HPK1 protein was purified from cell lysates by glutathione Sepharose affinity chromatography. The assay is run in three continuous steps: 1) the HPK1 enzymatic kinase reaction, 2) an ATP depletion, and 3) the ADP detection, the steps 2 and 3 are performed with ADP-Glo™ Kinase Assay kit from Promega (V9101). Test compounds were prepared by 10-point serial dilution in dimethyl sulfoxide (DMSO) and 100 nL of each dilution was spotted onto a 384-well Optiplate (Perkin Elmer and Cat #6007299) by Labcyte Echo. 5 μL kinase reaction buffer (0.02% Brij-35, 2 mM DTT, 50 mM HEPES pH 7.5, MgCl2 10 mM, BSA 0.01% and O-glycerophosphate 12.5 mM) containing HPK1 (3.2 nM) enzyme was transferred to each well and incubated for 15 minutes at room temperature at 60% humidity. The enzymatic reaction was started by adding 5 μl of Start-Mix (10 μM ATP and 3.235 μM MBP). After 120 minutes, the reaction was stopped by adding 5 μL of ADP-Glo reagent (Promega, V9101) and incubating for 40 min. in the dark at 23° C. To determine the level of ADP, 10 μl ADP-Glo Detection solution was added and incubated for 1 hour at 23° C. in the dark. The plate was transferred to a Perkin Elmer EnVision (2104 Multilabel Reader) for luminescence detection and percent inhibition activity and IC50 value were determined using Genedata Screener.
For `Cc1c(N2CCc3cnc(Nc4cnc5c(c4)CN(C)CC5)nc3C2)cnc2c1N(C)CCO2` [Example 101, 7-(1,8-dimethyl-2,3-dihydro-1H-pyrido[2,3-b][1,4]oxazin-7-yl)-N-(6-methyl-5,6,7,8-tetrahydro-1,6-naphthyridin-3-yl)-5,6,7,8-tetrahydropyrido[3,4-d]pyrimidin-2-amine], the IC50 is < 100 nM. In the case of `Cc1c(N2CCc3cnc(Nc4ccc(CCO)cc4)nc3C2)cnc2c1NCCO2` [Example 134, 2-{4-[(7-{8-methyl-1H,2H,3H-pyrido[2,3-b][1,4]oxazin-7-yl}-5H,6H,7H,8H-pyrido[3,4-d]pyrimidin-2-yl)amino]phenyl}ethan-1-ol] it was < 100 nM. Next, `Cc1c(N2CCc3cnc(Nc4ccc(CN5CCN(C)CC5)cc4)nc3C2)cnc2c1NCCO2` [Example 64, 7-{8-methyl-1H,2H,3H-pyrido[2,3-b][1,4]oxazin-7-yl}-N-{4-[(4-methylpiperazin-1-yl)methyl]phenyl}-5H,6H,7H,8H-pyrido[3,4-d]pyrimidin-2-amine]: < 100 nM.

As for `Cc1c(N2CCc3cnc(Nc4ccc5c(c4)CCN(C)CC5)nc3C2)cnc2c1NCCO2` [Example 62, 3-methyl-N-(7-{8-methyl-1H,2H,3H-pyrido[2,3-b][1,4]oxazin-7-yl}-5H,6H,7H,8H-pyrido[3,4-d]pyrimidin-2-yl)-2,3,4,5-tetrahydro-1H-3-benzazepin-7-amine], the IC50 was < 100 nM.

With `Cc1c(N2CCc3cnc(NC4CCN(Cc5cnn(C)c5)CC4)nc3C2)cnc2c1NCCO2` [Example 70, N-(7-{8-methyl-1H,2H,3H-pyrido[2,3-b][1,4]oxazin-7-yl}-5H,6H,7H,8H-pyrido[3,4-d]pyrimidin-2-yl)-1-[(1-methyl-1H-pyrazol-4-yl)methyl]piperidin-4-amine], the concentration for half-maximal inhibition (IC50) is > 1000 nM. In the case of `Cc1cc(Nc2ncc3c(n2)CN(c2cnc4c(c2C)NCCO4)CC3)cnc1N(C)CCN1CCOCC1` [Example 43, N2,3-dimethyl-N5-(7-{8-methyl-1H,2H,3H-pyrido[2,3-b][1,4]oxazin-7-yl}-5H,6H,7H,8H-pyrido[3,4-d]pyrimidin-2-yl)-N2-[2-(morpholin-4-yl)ethyl]pyridine-2,5-diamine] it was < 100 nM. In the case of `COCCOCCS(=O)(=O)Cc1ccc(Nc2ncc3c(n2)CN(c2cnc4c(c2C)NCCO4)CC3)cc1` [Example 137, N-(4-{[2-(2-methoxyethoxy)ethanesulfonyl]methyl}phenyl)-7-{8-methyl-1H,2H,3H-pyrido[2,3-b][1,4]oxazin-7-yl}-5H,6H,7H,8H-pyrido[3,4-d]pyrimidin-2-amine] it was < 100 nM; in that of `Cc1cc(Nc2ncc3c(n2)CN(c2cnc4c(c2C)NCCO4)CC3)ccc1CC#N` [Example 149, 2-{2-methyl-4-[(7-{8-methyl-1H,2H,3H-pyrido[2,3-b][1,4]oxazin-7-yl}-5H,6H,7H,8H-pyrido[3,4-d]pyrimidin-2-yl)amino]phenyl}acetonitrile], < 100 nM; in that of `COCCS(=O)(=O)Cc1ccc(Nc2cc3c(cn2)CCN(c2cnc4c(c2C)NCCO4)C3)cc1` [Example 172, N-{4-[(2-methoxyethanesulfonyl)methyl]phenyl}-6-{8-methyl-1H,2H,3H-pyrido[2,3-b][1,4]oxazin-7-yl}-5,6,7,8-tetrahydro-2,6-naphthyridin-3-amine], < 100 nM. Consider `Cc1cc(Nc2ncc3c(n2)CN(c2cnc4c(c2Cl)NCCO4)CC3)ccc1CS(C)(=O)=O` [Example 177, 7-{8-chloro-1H,2H,3H-pyrido[2,3-b][1,4]oxazin-7-yl}-N-[4-(methanesulfonylmethyl)-3-methylphenyl]-5H,6H,7H,8H-pyrido[3,4-d]pyrimidin-2-amine], for which the IC50 was < 100 nM. In the case of `Cc1c(N2CCc3cnc(Nc4ccnc(N5CCOCC5)c4)cc3C2)cnc2c1NCCO2` [Example 54, 6-(8-methyl-2,3-dihydro-1H-pyrido[2,3-b][1,4]oxazin-7-yl)-N-(2-morpholinopyridin-4-yl)-5,6,7,8-tetrahydro-2,6-naphthyridin-3-amine] it was < 100 nM; in that of `Cc1c(N2CCc3cnc(Nc4cnc5c(c4)CN(C)CC5)nc3C2)cnc2c1OCCO2` [Example 95, 7-(8-methyl-2,3-dihydro-[1,4]dioxino[2,3-b]pyridin-7-yl)-N-(6-methyl-5,6,7,8-tetrahydro-1,6-naphthyridin-3-yl)-5,6,7,8-tetrahydropyrido[3,4-d]pyrimidin-2-amine], < 100 nM.

As to `Cc1c(N2CCc3cnc(Nc4cnc5c(c4)CN(C)CC5)nc3C2)cnc2c1NC(=O)CO2` [Example 88, 8-methyl-7-(2-((6-methyl-5,6,7,8-tetrahydro-1,6-naphthyridin-3-yl)amino)-5,8-dihydropyrido[3,4-d]pyrimidin-7(6H)-yl)-1H-pyrido[2,3-b][1,4]oxazin-2(3H)-one], the IC50 is < 100 nM. In the case of `COc1cccc(F)c1N1CCc2cnc(Nc3ccc(C4CCN(C)CC4)cc3)nc2C1` [Example 117, 7-(2-fluoro-6-methoxyphenyl)-N-(4-(1-methylpiperidin-4-yl)phenyl)-5,6,7,8-tetrahydropyrido[3,4-d]pyrimidin-2-amine] it was < 100 nM. In the case of `COCc1cncc(N2CCc3cnc(Nc4ccc(C5CCOCC5)c(CO)c4)nc3C2)c1` [Example 78, (5-((7-(5-(methoxymethyl)pyridin-3-yl)-5,6,7,8-tetrahydropyrido[3,4-d]pyrimidin-2-yl)amino)-2-(tetrahydro-2H-pyran-4-yl)phenyl)methanol] it was 100 to 1000 nM; in that of `Cn1ccc2c(N3CCc4cnc(Nc5ccc(CS(C)(=O)=O)cc5)nc4C3)ccnc21` [Example 146, N-[4-(methanesulfonylmethyl)phenyl]-7-{1-methyl-1H-pyrrolo[2,3-b]pyridin-4-yl}-5H,6H,7H,8H-pyrido[3,4-d]pyrimidin-2-amine], > 1000 nM; in that of `Cc1c(N2CCc3cnc(Nc4ccc(C(=O)N5CC[C@@H](N(C)C)C5)cc4)cc3C2)cnc2c1NCCO2` [Example 11, N-{4-[(3R)-3-(dimethylamino)pyrrolidine-1-carbonyl]phenyl}-6-{8-methyl-1H,2H,3H-pyrido[2,3-b][1,4]oxazin-7-yl}-5,6,7,8-tetrahydro-2,6-naphthyridin-3-amine], < 100 nM. Next, `Cc1c(N2CCc3cnc(Nc4ccc(NC(=O)C5(C)COC5)nc4)nc3C2)cnc2c1NCCO2` [Example 8, 3-methyl-N-{5-[(7-{8-methyl-1H,2H,3H-pyrido[2,3-b][1,4]oxazin-7-yl}-5H,6H,7H,8H-pyrido[3,4-d]pyrimidin-2-yl)amino]pyridin-2-yl}oxetane-3-carboxamide]: 100 to 1000 nM; `CN1CCc2ncc(Nc3ncc4c(n3)CN(c3cnn(C)c3)CC4)cc2C1` [Example 114, 7-(1-methyl-1H-pyrazol-4-yl)-N-(6-methyl-5,6,7,8-tetrahydro-1,6-naphthyridin-3-yl)-5,6,7,8-tetrahydropyrido[3,4-d]pyrimidin-2-amine]: < 100 nM; `Cc1c(N2CCc3cnc(Nc4ccnc(S(C)(=O)=O)c4)nc3C2)cnc2c1NCCO2` [Example 75, 7-(8-methyl-2,3-dihydro-1H-pyrido[2,3-b][1,4]oxazin-7-yl)-N-(2-(methylsulfonyl)pyridin-4-yl)-5,6,7,8-tetrahydropyrido[3,4-d]pyrimidin-2-amine]: < 100 nM. As to `Cc1cnsc1N1CCc2cnc(Nc3cc4n(n3)CC(=O)N(C(C)C)CC4)nc2C1` [Example 86, 2-{[7-(4-methyl-1,2-thiazol-5-yl)-5H,6H,7H,8H-pyrido[3,4-d]pyrimidin-2-yl]amino}-6-(propan-2-yl)-4H,5H,6H,7H,8H-pyrazolo[1,5-d][1,4]diazepin-7-one; trifluoroacetic acid], the IC50 was > 1000 nM. Next, `Cc1c(N2CCc3cnc(Nc4ccc(CN5CC(C)(O)C5)cc4)nc3C2)cnc2c1NCCO2` [Example 123, 3-methyl-1-(4-((7-(8-methyl-2,3-dihydro-1H-pyrido[2,3-b][1,4]oxazin-7-yl)-5,6,7,8-tetrahydropyrido[3,4-d]pyrimidin-2-yl)amino)benzyl)azetidin-3-ol]: 100 to 1000 nM; `CS(=O)(=O)Cc1ccc(Nc2ncc3c(n2)CN(c2cnc4cnccn24)CC3)cc1` [Example 136, 7-{imidazo[1,2-a]pyrazin-3-yl}-N-[4-(methanesulfonylmethyl)phenyl]-5H,6H,7H,8H-pyrido[3,4-d]pyrimidin-2-amine]: > 1000 nM; `Cc1c(N2CCc3cnc(Nc4cc5n(n4)CC(=O)N(C4CC4)CC5)cc3C2)cnc2c1NCCO2` [Example 141, 6-cyclopropyl-2-[(6-{8-methyl-1H,2H,3H-pyrido[2,3-b][1,4]oxazin-7-yl}-5,6,7,8-tetrahydro-2,6-naphthyridin-3-yl)amino]-4H,5H,6H,7H,8H-pyrazolo[1,5-d][1,4]diazepin-7-one]: < 100 nM. Next, `Clc1c(N2CCc3cnc(Nc4ccc(-c5nnc(C6CC6)o5)cc4)nc3C2)cnc2c1NCCO2` [Example 159, 7-{8-chloro-1H,2H,3H-pyrido[2,3-b][1,4]oxazin-7-yl}-N-[4-(5-cyclopropyl-1,3,4-oxadiazol-2-yl)phenyl]-5H,6H,7H,8H-pyrido[3,4-d]pyrimidin-2-amine]: < 100 nM.
